Experimental data reported in ChEMBL document CHEMBL3885881, “DrugMatrix”.

Organism: Rattus norvegicus
Assay: DrugMatrix - Regimen: Daily Repeat
Type: toxicity, organism-based, Sprague-Dawley
Parameters: regimen Daily Repeat, gender Male, age 6-8 weeks
Settings: in vivo, iv, vehicle 100 % SALINE; for ABSOLUTE BASOPHIL / ABSOLUTE EOSINOPHIL / ABSOLUTE LYMPHOCYTE / ABSOLUTE MONOCYTE / ABSOLUTE SEGMENTED NEUTROPHIL / BASOPHIL / EOSINOPHIL / ERYTHROCYTE COUNT / HEMATOCRIT / LEUKOCYTE COUNT / LYMPHOCYTE / MEAN CORPUSCULAR HEMOGLOBIN / MEAN CORPUSCULAR HEMOGLOBIN CONCENTRATION / MEAN CORPUSCULAR VOLUME / MONOCYTE / NEUTROPHIL / NUCLEATED RED BLOOD CELLS / PLATELET COUNT / HEMOGLOBIN: tissue Blood
[1] = 0 mg/kg, 72 h, dose level Control, time 3 day
[2] = 0 mg/kg, 72 h, tissue Plasma, dose level Control, time 3 day
[3] = 0 mg/kg, 120 h, dose level Control, time 5 day
[4] = 0 mg/kg, 120 h, tissue Plasma, dose level Control, time 5 day
[5] = 8 mg/kg, 72 h, dose level High, time 3 day
[6] = 8 mg/kg, 72 h, tissue Plasma, dose level High, time 3 day
[7] = 8 mg/kg, 120 h, dose level High, time 5 day
[8] = 8 mg/kg, 120 h, tissue Plasma, dose level High, time 5 day

OXALIPLATIN
ABSOLUTE BASOPHIL [1]: 0 CELLS/uL
ABSOLUTE EOSINOPHIL [1]: 0 CELLS/uL
ABSOLUTE LYMPHOCYTE [1]: 7637.67 CELLS/uL
ABSOLUTE MONOCYTE [1]: 67.83 CELLS/uL
ABSOLUTE SEGMENTED NEUTROPHIL [1]: 661.17 CELLS/uL
BASOPHIL [1]: 0%
EOSINOPHIL [1]: 0%
ERYTHROCYTE COUNT [1]: 5.38 x10E6/uL
HEMATOCRIT [1]: 33.67%
LEUKOCYTE COUNT [1]: 8.37 x10E3/uL
LYMPHOCYTE [1]: 91.17%
MEAN CORPUSCULAR HEMOGLOBIN [1]: 23.95 pg
MEAN CORPUSCULAR HEMOGLOBIN CONCENTRATION [1]: 38.23 G/DL
MEAN CORPUSCULAR VOLUME [1]: 62.6 fL
MONOCYTE [1]: 0.83%
NEUTROPHIL [1]: 8%
NUCLEATED RED BLOOD CELLS [1]: 0.17 /100WBC
PLATELET COUNT [1]: 865 x10E3/uL
ALANINE AMINOTRANSFERASE [2]: 51.67 u/L
ALKALINE PHOSPHATASE [2]: 351.17 u/L
ASPARTATE AMINOTRANSFERASE [2]: 82.33 u/L
BLOOD UREA NITROGEN [2]: 15.17 mg/dL
CARBON DIOXIDE [2]: 34.5 mmol/L
CHLORIDE [2]: 100 MEQ/L
CHOLESTEROL [2]: 80.33 mg/dL
CREATINE PHOSPHOKINASE [2]: 316.5 u/L
CREATININE [2]: 0.17 mg/dL
LACTATE DEHYDROGENASE [2]: 105.67 u/L
LIPASE [2]: 9.5 u/L
PHOSPHORUS [2]: 10.87 mg/dL
POTASSIUM [2]: 5.47 MEQ/L
TOTAL BILIRUBIN [2]: 0.2 mg/dL
TOTAL PROTEIN [2]: 5.83 G/DL
URIC ACID [2]: 0.83 mg/dL
ABSOLUTE BASOPHIL [3]: 0 CELLS/uL
ABSOLUTE EOSINOPHIL [3]: 0 CELLS/uL
ABSOLUTE LYMPHOCYTE [3]: 6333.5 CELLS/uL
ABSOLUTE MONOCYTE [3]: 38.83 CELLS/uL
ABSOLUTE SEGMENTED NEUTROPHIL [3]: 661 CELLS/uL
BASOPHIL [3]: 0%
EOSINOPHIL [3]: 0%
ERYTHROCYTE COUNT [3]: 5.44 x10E6/uL
HEMATOCRIT [3]: 34.17%
HEMOGLOBIN [3]: 13.22 G/DL
LEUKOCYTE COUNT [3]: 7.03 x10E3/uL
LYMPHOCYTE [3]: 90.17%
MEAN CORPUSCULAR HEMOGLOBIN [3]: 24.38 pg
MEAN CORPUSCULAR HEMOGLOBIN CONCENTRATION [3]: 38.7 G/DL
MEAN CORPUSCULAR VOLUME [3]: 62.95 fL
MONOCYTE [3]: 0.5%
NUCLEATED RED BLOOD CELLS [3]: 0 /100WBC
PLATELET COUNT [3]: 924.33 x10E3/uL
ALANINE AMINOTRANSFERASE [4]: 52.5 u/L
ALKALINE PHOSPHATASE [4]: 364.83 u/L
ASPARTATE AMINOTRANSFERASE [4]: 82.5 u/L
BLOOD UREA NITROGEN [4]: 17 mg/dL
CARBON DIOXIDE [4]: 32.33 mmol/L
CHLORIDE [4]: 99.6 MEQ/L
CHOLESTEROL [4]: 75.83 mg/dL
CREATINE PHOSPHOKINASE [4]: 419 u/L
CREATININE [4]: 0.21 mg/dL
GLUCOSE [4]: 155 mg/dL
LIPASE [4]: 11.33 u/L
PHOSPHORUS [4]: 10.32 mg/dL
POTASSIUM [4]: 5.37 MEQ/L
TOTAL BILIRUBIN [4]: 0.18 mg/dL
TOTAL PROTEIN [4]: 5.98 G/DL
URIC ACID [4]: 0.62 mg/dL
ABSOLUTE BASOPHIL [5]: 0 CELLS/uL
ABSOLUTE EOSINOPHIL [5]: 0 CELLS/uL
ABSOLUTE LYMPHOCYTE [5]: 4377.33 CELLS/uL
ABSOLUTE MONOCYTE [5]: 16.67 CELLS/uL
ABSOLUTE SEGMENTED NEUTROPHIL [5]: 339.33 CELLS/uL
BASOPHIL [5]: 0%
EOSINOPHIL [5]: 0%
ERYTHROCYTE COUNT [5]: 5.41 x10E6/uL
HEMATOCRIT [5]: 33.23%
HEMOGLOBIN [5]: 12.83 G/DL
LEUKOCYTE COUNT [5]: 4.73 x10E3/uL
LYMPHOCYTE [5]: 92.67%
MEAN CORPUSCULAR HEMOGLOBIN CONCENTRATION [5]: 38.63 G/DL
MONOCYTE [5]: 0.33%
NEUTROPHIL [5]: 7%
NUCLEATED RED BLOOD CELLS [5]: 0 /100WBC
PLATELET COUNT [5]: 1068.33 x10E3/uL
ALANINE AMINOTRANSFERASE [6]: 44.67 u/L
ALBUMIN [6]: 4.3 G/DL
ALKALINE PHOSPHATASE [6]: 356.33 u/L
ASPARTATE AMINOTRANSFERASE [6]: 77.33 u/L
BLOOD UREA NITROGEN [6]: 16.67 mg/dL
CARBON DIOXIDE [6]: 34.33 mmol/L
CHLORIDE [6]: 99 MEQ/L
CHOLESTEROL [6]: 76 mg/dL
CREATINE PHOSPHOKINASE [6]: 301 u/L
CREATININE [6]: 0.12 mg/dL
LACTATE DEHYDROGENASE [6]: 153.67 u/L
POTASSIUM [6]: 5.69 MEQ/L
TOTAL BILIRUBIN [6]: 0.2 mg/dL
TOTAL PROTEIN [6]: 6.2 G/DL
URIC ACID [6]: 0.67 mg/dL
ABSOLUTE BASOPHIL [7]: 0 CELLS/uL
ABSOLUTE EOSINOPHIL [7]: 0 CELLS/uL
ABSOLUTE LYMPHOCYTE [7]: 3427.33 CELLS/uL
ABSOLUTE MONOCYTE [7]: 20 CELLS/uL
ABSOLUTE SEGMENTED NEUTROPHIL [7]: 186 CELLS/uL
BASOPHIL [7]: 0%
EOSINOPHIL [7]: 0%
ERYTHROCYTE COUNT [7]: 5.56 x10E6/uL
HEMATOCRIT [7]: 33.2%
HEMOGLOBIN [7]: 12.67 G/DL
LEUKOCYTE COUNT [7]: 3.63 x10E3/uL
LYMPHOCYTE [7]: 93.33%
MEAN CORPUSCULAR HEMOGLOBIN [7]: 22.77 pg
MEAN CORPUSCULAR HEMOGLOBIN CONCENTRATION [7]: 38.17 G/DL
MONOCYTE [7]: 0.67%
NEUTROPHIL [7]: 6%
NUCLEATED RED BLOOD CELLS [7]: 0.33 /100WBC
PLATELET COUNT [7]: 976 x10E3/uL
ALANINE AMINOTRANSFERASE [8]: 50 u/L
ALKALINE PHOSPHATASE [8]: 285.67 u/L
ASPARTATE AMINOTRANSFERASE [8]: 73.67 u/L
BLOOD UREA NITROGEN [8]: 16.67 mg/dL
CARBON DIOXIDE [8]: 33.67 mmol/L
CHLORIDE [8]: 98 MEQ/L
CHOLESTEROL [8]: 68.33 mg/dL
CREATINE PHOSPHOKINASE [8]: 268.33 u/L
CREATININE [8]: 0.16 mg/dL
GLUCOSE [8]: 141 mg/dL
LACTATE DEHYDROGENASE [8]: 86 u/L
LIPASE [8]: 9 u/L
PHOSPHORUS [8]: 9 mg/dL
POTASSIUM [8]: 5.38 MEQ/L
TOTAL BILIRUBIN [8]: 0.13 mg/dL
TOTAL PROTEIN [8]: 6.33 G/DL
URIC ACID [8]: 0.6 mg/dL
